In a compilation of properties of binary mixtures (doi:10.1021/acs.jced.0c00298):

Assay: xn = mol fraction of the nth substance listed
Details: 100 kPa

CC[n+]1ccn(CCOC)c1.O=S(=O)([N-]S(=O)(=O)C(F)(F)F)C(F)(F)F + CO
viscosity [mPa·s]
Details	x1 = 0.1	x1 = 0.1997	x1 = 0.2999	x1 = 0.3966	x1 = 0.5	x1 = 0.5984	x1 = 0.6953	x1 = 0.7934	x1 = 0.9016	x1 = 1
288.15 K	1.982	4.2	–	11.27	–	–	30.4	–	47.6	54.62
293.15 K	1.791	3.71	6.22	9.6	13.37	18.95	25.01	30.37	38.28	–
298.15 K	–	3.297	–	8.27	11.39	16.24	20.9	25.15	31.34	35.49
303.15 K	1.486	2.951	–	7.21	–	13.93	17.85	21.12	26.04	–
308.15 K	1.362	–	–	–	8.55	–	15.37	–	21.94	24.58
313.15 K	1.252	2.408	3.827	5.611	7.51	–	–	–	18.75	20.86
318.15 K	1.155	2.193	–	5.009	6.66	9.11	11.53	13.65	16.34	18.03

CO + CC[n+]1ccn(CCOC)c1.O=S(=O)([N-]S(=O)(=O)C(F)(F)F)C(F)(F)F
x2 = 0
Details	viscosity [mPa·s]
288.15 K	0.623
293.15 K	0.58
298.15 K	0.541
303.15 K	0.505
